Source: US12202850B2, “Cyclobutyl purine derivative or salt thereof” (FUJIFILM Corporation, priority 2018, dated 2025)

test system: adenovirus type 6 (ADV6); experiment: Evaluation of anti-adenovirus activity (CRL-11516 cells infected with ADV6, anti-hexon staining); assay type: cell-based; conditions: Human mastadenovirus C, 48 h, read-out: Anti-AdV activity EC50

Structure (SMILES) | EC50 [µM]
COC(=O)[C@H](C)NP(=O)(OC[C@H]1C[C@@H](n2cnc3c(OC)nc(N)nc32)C1)Oc1ccc(Br)cc1 (stereo partly drawn) [Example 1-1, methyl (((cis-3-(2-amino-6-methoxy-9H-purin-9-yl)cyclobutyl)methoxy)(4-bromophenoxy)phosphoryl)-L-alaninate] | < 0.1
COC(=O)[C@H](C)NP(=O)(OC[C@H]1C[C@@H](n2cnc3c(OC)nc(N)nc32)C1)Oc1cccc2ccccc12 (stereo partly drawn) [Example 1-2-1, methyl (((cis-3-(2-amino-6-methoxy-9H-purin-9-yl)cyclobutyl)methoxy)(naphthalen-1-yloxy)phosphoryl)-L-alaninate] | 0.1 to 1
COc1nc(N)nc2c1ncn2[C@H]1C[C@@H](COP(=O)(OCCSC(=O)C(C)(C)C)Oc2ccccc2)C1 (stereo partly drawn) [Example 3-1, S-(2-((((cis-3-(2-amino-6-methoxy-9H-purin-9-yl)cyclobutyl)methoxy)(phenoxy)phosphoryl)oxy)ethyl)2,2-dimethylpropanethioate] | 1 to 10
COc1nc(N)nc2c1ncn2[C@H]1C[C@@H](COP(=O)(N[C@@H](C)C(=O)OCc2ccccc2)Oc2ccccc2)C1 (stereo partly drawn) [Example 3-2-1, Benzyl (((cis-3-(2-amino-6-methoxy-9H-purin-9-yl)cyclobutyl)methoxy) (phenoxy)phosphoryl)-L-alaninate] | 0.1 to 1
COC(=O)[C@H](C)NP(=O)(OC[C@H]1C[C@@H](n2cnc3c(OC)nc(N)nc32)C1)Oc1ccccc1 (stereo partly drawn) [Example 3-2-2, Methyl (((cis-3-(2-amino-6-methoxy-9H-purin-9-yl)cyclobutyl)methoxy)(phenoxy)phosphoryl)-L-alaninate] | 0.1 to 1
COc1nc(N)nc2c1ncn2[C@H]1C[C@@H](COP(=O)(N[C@@H](C)C(=O)OC(C)C)Oc2ccccc2)C1 (stereo partly drawn) [Example 3-2-4, Isopropyl (((cis-3-(2-amino-6-methoxy-9H-purin-9-yl)cyclobutyl)methoxy) (phenoxy)phosphoryl)-L-alaninate] | 1 to 10
COC(=O)[C@H](C)NP(=O)(OC[C@H]1C[C@@H](n2cnc3c(OC)nc(N)nc32)C1)Oc1ccc(Cl)cc1 (stereo partly drawn) [Example 8-2-1, Methyl (((cis-3-(2-amino-6-methoxy-9H-purin-9-yl)cyclobutyl)methoxy)(4-chlorophenoxy)phosphoryl)-L-alaninate] | < 0.1

same assay, conditions: Human mastadenovirus C; CRL-11516 cells, ADV6 (50TCID50), 48 hours; 50% reduction of dark brown-stained cells; read-out: Anti-AdV activity EC50

EC50 [µM] | Structure (SMILES)
> 10 | Nc1nc2c(ncn2[C@H]2C[C@@H](CO)C2)c(=O)[nH]1 [Comparative Example 1, 2-Amino-9-(cis-3-(hydroxymethyl)cyclobutyl)-1,9-dihydro-6H-purin-6-one, reference compound]

same assay, conditions: read-out: Anti-AdV activity EC50

Structure (SMILES) | EC50 [µM]
COC(=O)[C@H](C)NP(=O)(OC[C@H]1C[C@@H](n2cnc3c(OC)nc(N)nc32)C1)Oc1ccc(Cl)cc1 (stereo partly drawn) [Example 1-2-2, Methyl (((cis-3-(2-amino-6-methoxy-9H-purin-9-yl)cyclobutyl)methoxy)(4-chloro-phenoxy)phosphoryl)-L-alaninate] | < 0.1
COC(=O)[C@H](C)NP(=O)(OC[C@H]1C[C@@H](n2cnc3c(OC)nc(N)nc32)C1)Oc1ccc(Cl)cc1 (stereo partly drawn) [Example 8-2-2, Methyl (((cis-3-(2-amino-6-methoxy-9H-purin-9-yl)cyclobutyl)methoxy)(4-chlorophenoxy)phosphoryl)-L-alaninate] | 0.1 to 1
